Values joined by “and” are separate entries in the source; they are usually repeats but may differ in a detail not shown here. Equal entries are not always repeated.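 Growth conditions: 96-well plates. Treatment: test compound, 48 hours, 5 concentrations. Analysis: linear interpolation between bracketing concentrations; unreached endpoints set to highest concentration. GI50 marks 50% less growth. TGI marks complete inhibition of growth.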

Test systems include HCT-116 colon; SK-MEL-2 melanoma; SK-OV-3 ovarian; PC-3 prostate; OVCAR-3 ovarian; RXF 393 renal; NCI-H460 lung; MALME-3M melanoma; IGROV1 ovarian; SW-620 colon.
Assay in all cases: NCI anticancer screen, dose series, 48 h

With `CN[C@@H](C)C(=O)N[C@H](C(=O)N1CCC[C@H]1C(=O)Nc1sc(-c2ncco2)nc1-c1ccccc1)C1CCCCC1`, the GI50 with HCT-116 colon is 25.6 µM; in the assay on SK-MEL-2 melanoma, 16.3 µM; in the assay on SK-OV-3 ovarian it was 0.0336 µM; with PC-3 prostate, 42 µM; with OVCAR-3 ovarian it was 38.7 µM; in the assay on RXF 393 renal, 8.51 µM. In addition, the GI50 with NCI-H460 lung is 37.7 µM; in the assay on MALME-3M melanoma, 3.91 µM; in the assay with IGROV1 ovarian, 47.5 µM; with SW-620 colon it was 78.4 µM. The TGI is more than 85.4 µM in the assay on HCT-116 colon; more than 100 µM with SK-MEL-2 melanoma; 0.299 µM in the assay with SK-OV-3 ovarian; more than 100 µM in the assay on PC-3 prostate; more than 100 µM in the assay with OVCAR-3 ovarian; 32.3 µM in the assay on RXF 393 renal. Further, the TGI in the assay on NCI-H460 lung is more than 100 µM; in the assay on MALME-3M melanoma, 19.4 µM; with IGROV1 ovarian, more than 100 µM; in the assay on SW-620 colon, more than 100 µM.

Take `O=C1NC(=O)C(N2C(=O)c3ccccc3C2=O)CC1O` (stereo not given): the GI50 with HCT-116 colon, with SK-MEL-2 melanoma, in the assay with SK-OV-3 ovarian, with PC-3 prostate, in the assay on OVCAR-3 ovarian and in the assay on RXF 393 renal was more than 100 µM in each case. Also, the GI50 in the assay on NCI-H460 lung, in the assay with MALME-3M melanoma, in the assay on IGROV1 ovarian and with SW-620 colon was more than 100 µM each time. In addition, the TGI with HCT-116 colon, in the assay with SK-MEL-2 melanoma, in the assay with SK-OV-3 ovarian, with PC-3 prostate, in the assay on OVCAR-3 ovarian and in the assay with RXF 393 renal was more than 100 µM in each case. The TGI in the assay on NCI-H460 lung, in the assay on MALME-3M melanoma, with IGROV1 ovarian and with SW-620 colon was more than 100 µM throughout.

In the case of `O=C1c2cccnc2C(=O)c2c1c(C(=O)NCCCN1CCCCC1)c1ccccn21`, the GI50 with HCT-116 colon was 0.337 µM; in the assay on SK-MEL-2 melanoma it was 2.05 µM; in the assay on SK-OV-3 ovarian, 2.06 µM; in the assay on PC-3 prostate it was 1.49 µM; in the assay with OVCAR-3 ovarian it was 0.321 µM; in the assay with RXF 393 renal, 1.28 µM. Also, the GI50 in the assay with NCI-H460 lung was 0.299 µM; in the assay on MALME-3M melanoma, 0.226 µM; in the assay with IGROV1 ovarian, 1.23 µM; in the assay with SW-620 colon it was 0.471 µM. Further, the TGI with HCT-116 colon turned out to be 1.22 µM; in the assay with SK-MEL-2 melanoma it was 5.17 µM; in the assay on SK-OV-3 ovarian it was 6.7 µM; in the assay with PC-3 prostate it was 7.21 µM; with OVCAR-3 ovarian it was 1.75 µM; in the assay with RXF 393 renal, 3.4 µM. Further, the TGI in the assay with NCI-H460 lung amounted to 1.46 µM; with MALME-3M melanoma it was 0.684 µM; in the assay with IGROV1 ovarian, 3.62 µM; in the assay with SW-620 colon, 2.14 µM.

Take `C=CC(=O)Nc1cccc(Oc2nc(Nc3ccc(N4CCN(C)CC4)cc3)nc3ccsc23)c1`: the GI50 in the assay with HCT-116 colon was 1.48 µM and 1.81 µM; in the assay on SK-MEL-2 melanoma it was 2.85 µM and 2.49 µM; in the assay on SK-OV-3 ovarian, 0.307 µM and 0.508 µM; in the assay with PC-3 prostate, 2.36 µM and 2.87 µM; in the assay on OVCAR-3 ovarian it was 2.11 µM and 1.88 µM; in the assay with RXF 393 renal, 1.54 µM. Moreover, the GI50 in the assay with NCI-H460 lung was 3.26 µM and 3.19 µM; with MALME-3M melanoma, 1.63 µM and 1.83 µM; in the assay with IGROV1 ovarian, 1.42 µM and 1.75 µM; with SW-620 colon, 2.07 µM and 1.92 µM. For the same molecule, the TGI in the assay on HCT-116 colon was 2.93 µM and 3.33 µM; with SK-MEL-2 melanoma, 8.48 µM and 5 µM; with SK-OV-3 ovarian, > 10 µM and 14 µM; in the assay with PC-3 prostate, 8.25 µM and 7.33 µM; with OVCAR-3 ovarian it was 9.29 µM and 4.79 µM; in the assay on RXF 393 renal, 3.31 µM and 4.26 µM. Further, the TGI in the assay on NCI-H460 lung is > 10 µM and 12.6 µM; in the assay on MALME-3M melanoma, 3.14 µM and 3.66 µM; in the assay with IGROV1 ovarian it was 3.05 µM and 4.58 µM; with SW-620 colon, 4.61 µM and 4.07 µM.

Take `NNC(=O)CS(=O)(=O)Nc1ncccn1`: the TGI in the assay on HCT-116 colon, with SK-MEL-2 melanoma, in the assay with SK-OV-3 ovarian, in the assay on PC-3 prostate, in the assay on OVCAR-3 ovarian and in the assay on RXF 393 renal was more than 100 µM throughout. Also, the TGI with NCI-H460 lung, in the assay on MALME-3M melanoma, in the assay with IGROV1 ovarian and with SW-620 colon was more than 100 µM throughout.

Regarding `CN1C(=O)N(C)C2C1NN=c1s/c(=C\c3ccc(C(F)(F)F)cc3)c(=O)n12` (stereo not given), the GI50 in the assay with HCT-116 colon was 1.55 µM; with SK-MEL-2 melanoma, 2.59 µM; in the assay on SK-OV-3 ovarian it was 3.96 µM; in the assay with PC-3 prostate, 0.677 µM; in the assay on OVCAR-3 ovarian it was 0.493 µM; in the assay with RXF 393 renal it was 1.73 µM. Further, the GI50 in the assay on NCI-H460 lung is 0.715 µM; in the assay with MALME-3M melanoma, 8.33 µM; in the assay on IGROV1 ovarian, 2.65 µM; in the assay on SW-620 colon it was 0.659 µM. The TGI with HCT-116 colon is more than 100 µM; in the assay on SK-MEL-2 melanoma, 24.1 µM; with SK-OV-3 ovarian, 46.9 µM; in the assay on PC-3 prostate, more than 100 µM; in the assay on OVCAR-3 ovarian, 17.7 µM; with RXF 393 renal, 6.77 µM. In addition, the TGI in the assay with NCI-H460 lung, with MALME-3M melanoma, in the assay with IGROV1 ovarian and with SW-620 colon was more than 100 µM in each case.

Turning to `O=C1/C(=C/c2ccccc2[N+](=O)[O-])Cc2ccccc21`, the GI50 is 1.23 µM in the assay with HCT-116 colon; 5.39 µM with SK-MEL-2 melanoma; 6.86 µM in the assay with SK-OV-3 ovarian; 1.83 µM in the assay on PC-3 prostate; 1.72 µM with OVCAR-3 ovarian; 1.45 µM in the assay with RXF 393 renal. The GI50 was 1.15 µM with NCI-H460 lung, 2.28 µM with MALME-3M melanoma, 1.25 µM in the assay on IGROV1 ovarian and 1.27 µM in the assay with SW-620 colon. The TGI was 2.57 µM in the assay with HCT-116 colon; 19.7 µM in the assay on SK-MEL-2 melanoma; 38.4 µM in the assay on SK-OV-3 ovarian; 5.33 µM in the assay on PC-3 prostate; 3.2 µM in the assay with OVCAR-3 ovarian; 2.99 µM in the assay with RXF 393 renal. Besides, the TGI in the assay on NCI-H460 lung was 13.1 µM; in the assay with MALME-3M melanoma, 5.71 µM; with IGROV1 ovarian, 8.59 µM; in the assay with SW-620 colon it was 3.22 µM.

On to `COc1ccc(-c2nc(Nc3cc(C)[nH]n3)c3ccccc3n2)cc1`, for which the GI50 in the assay with HCT-116 colon is 0.744 µM; in the assay on SK-MEL-2 melanoma, 0.44 µM; with SK-OV-3 ovarian, 1.39 µM; in the assay on PC-3 prostate, 1.48 µM; with OVCAR-3 ovarian, 3.72 µM; in the assay with RXF 393 renal, 0.6 µM. Also, the GI50 with NCI-H460 lung was 3.1 µM; in the assay with MALME-3M melanoma, 28.5 µM; with IGROV1 ovarian, 0.686 µM; in the assay with SW-620 colon, 2.14 µM. Further, the TGI in the assay with HCT-116 colon was 17.5 µM; with SK-MEL-2 melanoma, 40.6 µM; in the assay with SK-OV-3 ovarian, more than 100 µM; in the assay on PC-3 prostate it was 66.1 µM; with OVCAR-3 ovarian, 38.8 µM; with RXF 393 renal, 2.67 µM. Also, the TGI in the assay on NCI-H460 lung is more than 100 µM; in the assay on MALME-3M melanoma, more than 100 µM; in the assay on IGROV1 ovarian it was 7.12 µM; in the assay with SW-620 colon it was more than 100 µM.

On to `COC1C=COC2(C)Oc3c(C)c(O)c4c(c3C2=O)/C(=N/C2CCC(O)OC2C)C=C(NC(=O)/C(C)=C\C(=O)C2CC2C(O)C(C)C(O)C(C)C(OC(C)=O)C1C)C4=O` (stereo not given), for which the TGI amounted to 3.56 µM with HCT-116 colon; 12.4 µM with SK-MEL-2 melanoma; 20.1 µM with SK-OV-3 ovarian; 6.56 µM in the assay with PC-3 prostate; 5.21 µM in the assay with OVCAR-3 ovarian; 3.45 µM with RXF 393 renal. Also, the TGI in the assay with NCI-H460 lung was determined as 11.5 µM; with MALME-3M melanoma it was 3.36 µM; in the assay on IGROV1 ovarian it was 6.13 µM; in the assay with SW-620 colon, 4.91 µM.

Regarding `O=C(OCc1ccc2ccccc2n1)c1cn(C2CC2)c2cc(N3CCN(Cc4ccc5ccccc5n4)CC3)c(F)cc2c1=O`, the GI50 in the assay on HCT-116 colon is more than 53.2 µM; in the assay on SK-MEL-2 melanoma, more than 100 µM; in the assay with SK-OV-3 ovarian, more than 80.7 µM; in the assay with PC-3 prostate it was more than 44.6 µM; in the assay on OVCAR-3 ovarian it was 44.9 µM; in the assay with RXF 393 renal it was 63.6 µM. Besides, the GI50 in the assay on NCI-H460 lung was 39.3 µM; with MALME-3M melanoma, 33.2 µM; with IGROV1 ovarian it was more than 93.2 µM; in the assay with SW-620 colon, more than 89.5 µM. Also, the TGI in the assay on HCT-116 colon was more than 95.3 µM; in the assay on SK-MEL-2 melanoma it was more than 100 µM; in the assay on SK-OV-3 ovarian it was more than 100 µM; with PC-3 prostate, more than 80.2 µM; in the assay on OVCAR-3 ovarian, more than 100 µM; in the assay with RXF 393 renal, more than 100 µM. The TGI in the assay on NCI-H460 lung was more than 100 µM; with MALME-3M melanoma it was more than 84.2 µM; in the assay with IGROV1 ovarian, more than 100 µM; with SW-620 colon, more than 100 µM.

In the case of `CN1CCN(C(=O)c2cc(-c3ccc4ncnc(N5CCc6cc(F)c(Cl)cc65)c4c3)cnc2N)CC1`, the GI50 is 0.237 µM in the assay on HCT-116 colon; 0.238 µM with SK-MEL-2 melanoma; 0.382 µM in the assay with SK-OV-3 ovarian; 0.176 µM in the assay on PC-3 prostate; 0.248 µM in the assay on OVCAR-3 ovarian; 0.0922 µM in the assay on RXF 393 renal. Further, the GI50 with NCI-H460 lung is 0.224 µM; with MALME-3M melanoma, 0.123 µM; in the assay on IGROV1 ovarian, 0.0467 µM; with SW-620 colon, 0.315 µM. For the same molecule, the TGI in the assay on HCT-116 colon came out at 2.89 µM; in the assay on SK-MEL-2 melanoma, 1.02 µM; in the assay on SK-OV-3 ovarian, 2.21 µM; with PC-3 prostate, 3.78 µM; with OVCAR-3 ovarian, 1.49 µM; in the assay with RXF 393 renal it was 0.48 µM. In addition, the TGI in the assay with NCI-H460 lung stood at 9.14 µM; with MALME-3M melanoma it was 0.843 µM; with IGROV1 ovarian, 0.595 µM; in the assay on SW-620 colon, 1.82 µM.

With `O=C(O)c1ccc(C(=O)c2ccccc2)c(C(=O)O)c1`, the TGI in the assay with HCT-116 colon, with SK-MEL-2 melanoma, in the assay with SK-OV-3 ovarian, with PC-3 prostate, with OVCAR-3 ovarian and in the assay on RXF 393 renal was more than 100 µM in each case. In addition, the TGI with NCI-H460 lung, in the assay with MALME-3M melanoma, in the assay with IGROV1 ovarian and in the assay on SW-620 colon was more than 100 µM in each case.

Values taken from PubChem BioAssay (NCI).
